Reference: patent US8394785B2, “Methods for the treatment and amelioration of urticaria” (Jado Technologies GmbH, priority 2005, dated 2013)

Tests used:
[1] = test system: allergic volunteers with known type-1-sensitizations; assay: Prick test with histamine after topical pre-treatment, wheal size; type: in vivo, human; conditions: n = 5; for histamine-prick wheal ± standard error: miltefosine pre-treatment (6% solution, topical, 2 h before); for histamine-prick % inhibition ± standard error (by miltefosine pre-treatment): versus placebo pre-treatment
From the text: To provide proof of concept that miltefosine inhibits IgE-dependent human mast cell stimulation and mediator release in vivo we performed a study on selected allergic volunteers with known type-1-sensitizations (n=5). The volunteers were subjected to standard prick testing with their known allergens on both forearms as well as with positive (histamine) and negative (saline) controls (Table 3). Using a double blind, placebo controlled approach, one forearm of each test person was pre-treated with topical miltefosine (6% solution). The contralateral side was subjected to a pre-treatment with a placebo solution (saline), both two hours prior to the prick test. Subsequently, developing skin symptoms were measured with high-quality standardized methods, i.e. macroscopic standard prick test-evaluation (Heinzerling et al 2005), volumetric imaging, thermography, and digital time lapse photography (DTLP). Volunteers known to suffer from permanent severe diseases, especially those affecting the immune system, were excluded from the study. None of the volunteers took any oral […] or leukotriene antagonists within 7 days prior to the beginning of the study. Moreover, none of them took any oral or depot corticosteroids or other immunosuppressive drugs within 21 days before the testing. The course of developing lesions (wheal and erythema size) was assessed macroscopically by measuring vertical and perpendicular diameter of wheal and erythema size. Subsequently, the sum of both diameters was divided by two. In addition, volumetric and thermographic imaging as well as DTLP was performed before and at defined time points after prick testing. To assess the course of developing prick test lesions, wheal size was assessed macroscopically by measuring the diameters at distinct time points after prick testing.

[2] = test system: Rat basophilic leukemia (RBL-2H3) cells; assay: Mast cell degranulation assay (β-hexosaminidase release); type: cell-based; conditions: Rattus norvegicus
Protocol: The assay measures release of β-hexosaminidase as a marker of release of various preformed pharmacological agents in response to clustering of the high affinity IgE receptor (FcεRI) by means of multivalent antigen-IgE complexes. Rat basophilic leukemia (RBL-2H3) cells, a commonly used model of mast cell degranulation, are sensitized with anti-DNP specific IgE and challenged with multivalent DNP-BSA. The release of β-hexosaminidase into the supernatant is measured by enzymatic conversion of the fluorogenic substrate 4-methylumbelliferyl-N-acetyl-β-D-glucosaminide to N-acetyl-β-D-glucosamine and highly fluorescent methylumbelliferone and quantified by fluorescence detection in a Tecan Safire™ plate reader.
RBL-2H3 cells obtained from the German Collection of Microorganisms and Cell Cultures (Braunschweig, Germany) were maintained in 70% Minimum Essential Medium with Earle's Salts/20% RPMI 1640/10% heat-inactivated fetal calf serum) supplemented with 2 mM GlutaMAX™-I in 5% CO2 at 37° C. and routinely checked to be free of mycoplasma contamination. Cells grown in 175 cm^2 flasks were split with 0.05% Trypsin/EDTA and resuspended in 20 ml fresh medium. One hundred and 50 μl cell suspension were plated per well into 24 well cluster plates (Costar, Schiphol-Rijk, Netherlands) and cells were used one or two days after plating, respectively.
Two to 24 hours before incubation with test compounds the medium was removed and cells were sensitized with 0.4 μg/ml anti-DNP IgE in fresh medium. Following sensitization, cells were washed once with warm TyB and incubated for 60 min with test compound at a maximum of 100 μM or the highest non-toxic concentration (total vehicle concentration adjusted to 1%) or 1% vehicle in TyB at 37° C. DNP-HSA (0.1 μg/ml final concentration) or buffer alone was added and cells incubated for 15 min at 37° C. Plates were centrifuged at 4° C. for 5 min at 250×g and immediately transferred to ice. Supernatants were collected and the cells lysed with lysis buffer. Hexosaminidase activity in supernatants and lysates was measured by incubating 25 μl aliquots with 100 μl MUG substrate solution in a 96-well plate at 37° C. for 30 min. The reaction was terminated by addition of 150 μl stop solution. Fluorescence was measured in a Tecan Safire™ plate reader at 365 nm excitation and 440 nm emission settings.
Each compound is tested in duplicates in at least three independent experiments. β-hexosaminidase release is calculated after subtraction of unspecific release (release without addition of antigen) using the formula: % degranulation=100×RFU supernatant/RFU lysate
Inhibition of β-hexosaminidase release with respect to control is calculated as
follows: % inhibition=100×(1−(RFU supernatant of compound/RFU supernatant of control))

IC50 ([2]; 1 h, concentration at which 50% of maximal inhibition is reached, RBL-2H3, 60 min incubation with compound, DNP antigen challenge, read-out: ID50 (the source's name)): 4.6 µM
SMILES: CCCCCCCCCCCCCCCCOP(=O)([O-])OCC[N+](C)(C)C [Compound 3, 1-hexadecylphosphoryl-choline]
histamine-prick wheal ± standard error ([1]; 15 minutes after prick testing): 4.40 ± 0.86 mm
histamine-prick wheal ± standard error ([1]; 20 minutes after prick testing): 4.30 ± 1.08 mm
histamine-prick wheal ± standard error ([1]; 30 minutes after prick testing): 3.40 ± 1.43 mm
histamine-prick % inhibition ± standard error (by miltefosine pre-treatment) ([1]; 15 minutes after prick testing): 22.4 ± 14.2%
histamine-prick % inhibition ± standard error (by miltefosine pre-treatment) ([1]; 20 minutes after prick testing): 19.2 ± 23.1%
histamine-prick % inhibition ± standard error (by miltefosine pre-treatment) ([1]; 30 minutes after prick testing): −7.9 ± 23.2%
inhibition at 10 µM ([2]; RBL-2H3, 10 μM, read-out: maximum inhibition (concentration used)): 87%
inhibition at 25 µM ([2]; RBL-2H3, at or 25 μM, read-out: inhibition of degranulation): > 75%
